{"source": "patent US20220347093A1", "about": "“PHARMACEUTICAL COMPOSITION” (University of Fukui, priority 2019, published 2022)", "key": {"[1]": {"tested_on": "nasal polyps specimen surgically obtained from a patient with eosinophilic sinusitis", "test": "Ex vivo incubation of nasal polyps specimens, weight change before/after about 24 h", "design": "species or system human", "conditions": "37° C.; for nasal polyps weight change before and after incubation (paired t-test): 6 cases; for (A) − (B) (mg), nasal polyps weight decrease / After incubation (mg) (B), nasal polyps specimen weight: single case", "method": "(§1) A heparinoid (organic sulfate group 25.8 to 37.3% w/w, D-glucuronic acid 19.0 to 24.0% w/w, Maruho Co., Ltd.) dried under reduced pressure was dissolved in saline to prepare heparinoid solutions (0.3, 30 and 3,000 μg/mL). A nasal polyps specimen was surgically obtained from a patient with eosinophilic sinusitis, cut into pieces of about 5 mm squares, wiped off the moisture and measured the weight. Each specimen was transferred to a 12-well plate. The specimen in the plate was incubated with 1 mL of saline or heparinoid solutions at 37° C. for about 24 hours. Then, after wiping off the moisture in the incubated specimen taken from the plate, the weight of the specimen was measured. The difference between specimen weights before and after incubation was used as an index of a nasal polyps reduction effect. The saline group and heparinoid solution groups (different in concentration) of FIG. 1 each consisted of 6 cases.\nThe reduction effects of heparinoid solutions (0.003, 0.03, 0.3 and 30 μg/mL) on nasal polyps were evaluated in the same method as in Example 1. The saline group and heparinoid solution groups (different in concentration) of FIG. 2 each consisted of 6 cases.\nA PPS solution (0.003 μg/mL) was prepared and the reduction effect on nasal polyps was evaluated in the same method as in Example 1. PPS used herein was sodium pentosan polysulfate (weight average molecular weight 4,000 to 6,500, sulfur content 13.0 to 20.0% w/w, glucuronic acid content 2.5 to 4.0% w/w) manufactured by Molclone Labs. The saline group and PPS solution group of FIG. 3 each consisted of 6 cases.\nThe following 11 types of polysaccharide solutions (polysaccharides except glucomannan: 300 μg/mL; glucomannan 30 μg/mL) were prepared and the reduction effect on nasal polyps was evaluated in the same method as in Example 1. The saline groups and polysaccharide solution groups (different in concentration) of Tables 1 to 4 each consisted of a single case. • Chondroitin (chondroitin sodium, weight average molecular weight 42,351, sulfate group content 2.6%, manufactured by Maruho Co., Ltd.) • Low-molecular chondroitin sulfate (low-molecular sodium chondroitin sulfate, weight average molecular weight 11,500, sulfate group content 8.9%, manufactured by Maruho Co., Ltd.) • Chondroitin sulfate A (sodium chondroitin sulfate A, manufactured by PG Research) • Dermatan sulfate (sodium dermatan sulfate, manufactured by Tokyo Chemical Industry Co., Ltd.) • Chondroitin sulfate C (sodium chondroitin sulfate C, manufactured by PG Research) • Glucomannan (Propol A, manufactured by Shimizu Chemical Corporation) • Dextran sulfate (sodium dextran sulfate 500,000, manufactured by FUJIFILM Wako Pure Chemical Corporation) • Keratan sulfate (sodium keratan sulfate, manufactured by PG Research) • Inulin (manufactured by Tokyo Chemical Industry Co., Ltd.) • Heparan sulfate (manufactured by Toronto Research Chemicals, Inc.) • Xylo-oligosaccharide (xylo-hexaose, manufactured by Megazyme)"}, "[2]": {"tested_on": "nasal polyps specimen surgically obtained from a patient with non-eosinophilic sinusitis", "test": "Ex vivo incubation of nasal polyps specimens, weight change before/after about 24 h", "design": "species or system human", "conditions": "single case; for (A) − (B) (mg), nasal polyps weight decrease / After incubation (mg) (B), nasal polyps specimen weight: 37° C., about 24 hours; for nasal polyps weight change before and after incubation, in words: 0.03, 0.3, 30 and 300 μg/mL, individually", "method": "as §1\nIn the same method as in Example 1, heparinoid solutions and PPS solutions (0.03, 0.3, 30 and 300 μg/mL, respectively) were prepared and the reduction effect on nasal polyps specimen surgically obtained from a patient with non-eosinophilic sinusitis was evaluated. The heparinoid and PPS were also the same as those used in Example 1 and Example 3, respectively. The saline groups, heparinoid solution group and PPS solution groups of Table 5 each consisted of a single case."}, "[3]": {"tested_on": "nasal polyps surgically obtained from patients with eosinophilic sinusitis", "conditions": "Non Patent Literature 5; cited from earlier work"}, "[4]": {"tested_on": "rat nasal mucosal inflammation models", "conditions": "Non Patent Literature 4; cited from earlier work"}}}
{"molecule": "sodium pentosan polysulfate [PPS]", "values": [{"measurement": "nasal polyps weight change before and after incubation (paired t-test)", "setting": "[1]; 0.003 μg/mL", "value": "decreased significantly"}, {"measurement": "(A) − (B) (mg), nasal polyps weight decrease", "setting": "[2]; 0.03 μg/mL", "value": 19.0, "unit": "mg"}, {"measurement": "After incubation (mg) (B), nasal polyps specimen weight", "setting": "[2]; 0.03 μg/mL", "value": 214.0, "unit": "mg"}, {"measurement": "(A) − (B) (mg), nasal polyps weight decrease", "setting": "[2]; 0.3 μg/mL", "value": 48.0, "unit": "mg"}, {"measurement": "After incubation (mg) (B), nasal polyps specimen weight", "setting": "[2]; 0.3 μg/mL", "value": 225.0, "unit": "mg"}, {"measurement": "(A) − (B) (mg), nasal polyps weight decrease", "setting": "[2]; 30 μg/mL", "value": 13.0, "unit": "mg"}, {"measurement": "After incubation (mg) (B), nasal polyps specimen weight", "setting": "[2]; 30 μg/mL", "value": 207.0, "unit": "mg"}, {"measurement": "(A) − (B) (mg), nasal polyps weight decrease", "setting": "[2]; 300 μg/mL", "value": 10.0, "unit": "mg"}, {"measurement": "After incubation (mg) (B), nasal polyps specimen weight", "setting": "[2]; 300 μg/mL", "value": 115.0, "unit": "mg"}, {"measurement": "nasal polyps weight change before and after incubation, in words", "setting": "[2]", "value": "remarkably decreased"}]}
{"molecule": "Glucomannan", "values": [{"measurement": "(A) − (B) (mg), nasal polyps weight decrease", "setting": "[1]; 30 μg/mL in saline", "value": 19.0, "unit": "mg"}, {"measurement": "After incubation (mg) (B), nasal polyps specimen weight", "setting": "[1]; 30 μg/mL in saline", "value": 81.0, "unit": "mg"}]}
{"molecule": "Heparan sulfate", "values": [{"measurement": "(A) − (B) (mg), nasal polyps weight decrease", "setting": "[1]; 300 μg/mL in saline", "value": 25.5, "unit": "mg"}, {"measurement": "After incubation (mg) (B), nasal polyps specimen weight", "setting": "[1]; 300 μg/mL in saline", "value": 103.0, "unit": "mg"}]}
{"molecule": "chondroitin sodium", "values": [{"measurement": "(A) − (B) (mg), nasal polyps weight decrease", "setting": "[1]; 300 μg/mL in saline", "value": 32.8, "unit": "mg"}, {"measurement": "After incubation (mg) (B), nasal polyps specimen weight", "setting": "[1]; 300 μg/mL in saline", "value": 122.0, "unit": "mg"}]}
{"molecule": "sodium dextran sulfate 500,000", "values": [{"measurement": "(A) − (B) (mg), nasal polyps weight decrease", "setting": "[1]; 300 μg/mL in saline", "value": 22.0, "unit": "mg"}, {"measurement": "After incubation (mg) (B), nasal polyps specimen weight", "setting": "[1]; 300 μg/mL in saline", "value": 120.0, "unit": "mg"}]}
{"molecule": "low-molecular sodium chondroitin sulfate [Low-molecular chondroitin sulfate]", "values": [{"measurement": "(A) − (B) (mg), nasal polyps weight decrease", "setting": "[1]; 300 μg/mL in saline", "value": 25.0, "unit": "mg"}, {"measurement": "After incubation (mg) (B), nasal polyps specimen weight", "setting": "[1]; 300 μg/mL in saline", "value": 116.0, "unit": "mg"}]}
{"molecule": "sodium dermatan sulfate", "values": [{"measurement": "(A) − (B) (mg), nasal polyps weight decrease", "setting": "[1]; 300 μg/mL in saline", "value": 13.1, "unit": "mg"}, {"measurement": "After incubation (mg) (B), nasal polyps specimen weight", "setting": "[1]; 300 μg/mL in saline", "value": 118.5, "unit": "mg"}]}
{"molecule": "sodium chondroitin sulfate C", "values": [{"measurement": "(A) − (B) (mg), nasal polyps weight decrease", "setting": "[1]; 300 μg/mL in saline", "value": 44.0, "unit": "mg"}, {"measurement": "After incubation (mg) (B), nasal polyps specimen weight", "setting": "[1]; 300 μg/mL in saline", "value": 80.0, "unit": "mg"}]}
{"molecule": "heparinoid", "values": [{"measurement": "nasal polyps weight change before and after incubation (paired t-test)", "setting": "[1]; 0.003 μg/mL", "value": "decreased significantly"}, {"measurement": "nasal polyps weight change before and after incubation (paired t-test)", "setting": "[1]; 0.03 μg/mL", "value": "decreased significantly"}, {"measurement": "nasal polyps weight change before and after incubation (paired t-test)", "setting": "[1]; 0.3 μg/mL", "value": "decreased significantly"}, {"measurement": "nasal polyps weight change before and after incubation (paired t-test)", "setting": "[1]; 30 μg/mL", "value": "decreased significantly"}, {"measurement": "nasal polyps weight change before and after incubation (paired t-test)", "setting": "[1]; 3,000 μg/mL", "value": "decreased significantly"}, {"measurement": "(A) − (B) (mg), nasal polyps weight decrease", "setting": "[2]; 0.03 μg/mL", "value": 35.0, "unit": "mg"}, {"measurement": "After incubation (mg) (B), nasal polyps specimen weight", "setting": "[2]; 0.03 μg/mL", "value": 276.0, "unit": "mg"}, {"measurement": "(A) − (B) (mg), nasal polyps weight decrease", "setting": "[2]; 0.3 μg/mL", "value": 28.0, "unit": "mg"}, {"measurement": "After incubation (mg) (B), nasal polyps specimen weight", "setting": "[2]; 0.3 μg/mL", "value": 181.0, "unit": "mg"}, {"measurement": "(A) − (B) (mg), nasal polyps weight decrease", "setting": "[2]; 30 μg/mL", "value": 66.0, "unit": "mg"}, {"measurement": "After incubation (mg) (B), nasal polyps specimen weight", "setting": "[2]; 30 μg/mL", "value": 169.0, "unit": "mg"}, {"measurement": "(A) − (B) (mg), nasal polyps weight decrease", "setting": "[2]; 300 μg/mL", "value": 30.0, "unit": "mg"}, {"measurement": "After incubation (mg) (B), nasal polyps specimen weight", "setting": "[2]; 300 μg/mL", "value": 246.0, "unit": "mg"}, {"measurement": "nasal polyps weight change before and after incubation, in words", "setting": "[2]", "value": "remarkably decreased"}]}
{"molecule": "heparin", "values": [{"measurement": "reduction effect on nasal polyps", "setting": "[3]", "value": "did not show a reduction effect"}, {"measurement": "neutrophil infiltration", "setting": "[4]", "value": "significantly suppress"}, {"measurement": "production of mucus", "setting": "[4]", "value": "significantly suppress"}]}
{"molecule": "sodium keratan sulfate", "values": [{"measurement": "(A) − (B) (mg), nasal polyps weight decrease", "setting": "[1]; 300 μg/mL in saline", "value": 18.3, "unit": "mg"}, {"measurement": "After incubation (mg) (B), nasal polyps specimen weight", "setting": "[1]; 300 μg/mL in saline", "value": 147.3, "unit": "mg"}]}
{"molecule": "Inulin", "values": [{"measurement": "(A) − (B) (mg), nasal polyps weight decrease", "setting": "[1]; 300 μg/mL in saline", "value": 46.1, "unit": "mg"}, {"measurement": "After incubation (mg) (B), nasal polyps specimen weight", "setting": "[1]; 300 μg/mL in saline", "value": 85.3, "unit": "mg"}]}
{"molecule": "sodium chondroitin sulfate A", "values": [{"measurement": "(A) − (B) (mg), nasal polyps weight decrease", "setting": "[1]; 300 μg/mL in saline", "value": 38.0, "unit": "mg"}, {"measurement": "After incubation (mg) (B), nasal polyps specimen weight", "setting": "[1]; 300 μg/mL in saline", "value": 68.0, "unit": "mg"}]}
{"molecule": "OC1OC[C@@H](O[C@@H]2OC[C@@H](O[C@@H]3OC[C@@H](O[C@@H]4OC[C@@H](O[C@@H]5OC[C@@H](O[C@@H]6OC[C@@H](O)[C@H](O)[C@H]6O)[C@H](O)[C@H]5O)[C@H](O)[C@H]4O)[C@H](O)[C@H]3O)[C@H](O)[C@H]2O)[C@H](O)[C@H]1O", "note": "(stereo partly shown) [Xylo-oligosaccharide, xylo-hexaose]", "values": [{"measurement": "(A) − (B) (mg), nasal polyps weight decrease", "setting": "[1]; 300 μg/mL in saline", "value": 17.9, "unit": "mg"}, {"measurement": "After incubation (mg) (B), nasal polyps specimen weight", "setting": "[1]; 300 μg/mL in saline", "value": 110.4, "unit": "mg"}]}
